According to US20240262795A1, “PYRAZINE COMPOUNDS AS INHIBITORS OF FLT3” (Biomea Fusion, Inc., priority 2021, published 2024):

These compounds were tested against T1, Ba/F3 cell lines stably expressing human FLT3-ITD-F691L (Homo sapiens, UniProt P36888, F691L, cells depend on it, form not given) (assay: FLT3 mutant assay, cell viability, Ba/F3-FLT3-ITD-F691L). Conditions: IC50 (3 days), CellTiter-Glo; read-out: Ba/F3-FLT3-ITD-F691L Relative IC50.
T1 construct: Ba/F3-FLT3-ITD-F691L Relative IC50
T1 sequence (P36888 1-993 F691L): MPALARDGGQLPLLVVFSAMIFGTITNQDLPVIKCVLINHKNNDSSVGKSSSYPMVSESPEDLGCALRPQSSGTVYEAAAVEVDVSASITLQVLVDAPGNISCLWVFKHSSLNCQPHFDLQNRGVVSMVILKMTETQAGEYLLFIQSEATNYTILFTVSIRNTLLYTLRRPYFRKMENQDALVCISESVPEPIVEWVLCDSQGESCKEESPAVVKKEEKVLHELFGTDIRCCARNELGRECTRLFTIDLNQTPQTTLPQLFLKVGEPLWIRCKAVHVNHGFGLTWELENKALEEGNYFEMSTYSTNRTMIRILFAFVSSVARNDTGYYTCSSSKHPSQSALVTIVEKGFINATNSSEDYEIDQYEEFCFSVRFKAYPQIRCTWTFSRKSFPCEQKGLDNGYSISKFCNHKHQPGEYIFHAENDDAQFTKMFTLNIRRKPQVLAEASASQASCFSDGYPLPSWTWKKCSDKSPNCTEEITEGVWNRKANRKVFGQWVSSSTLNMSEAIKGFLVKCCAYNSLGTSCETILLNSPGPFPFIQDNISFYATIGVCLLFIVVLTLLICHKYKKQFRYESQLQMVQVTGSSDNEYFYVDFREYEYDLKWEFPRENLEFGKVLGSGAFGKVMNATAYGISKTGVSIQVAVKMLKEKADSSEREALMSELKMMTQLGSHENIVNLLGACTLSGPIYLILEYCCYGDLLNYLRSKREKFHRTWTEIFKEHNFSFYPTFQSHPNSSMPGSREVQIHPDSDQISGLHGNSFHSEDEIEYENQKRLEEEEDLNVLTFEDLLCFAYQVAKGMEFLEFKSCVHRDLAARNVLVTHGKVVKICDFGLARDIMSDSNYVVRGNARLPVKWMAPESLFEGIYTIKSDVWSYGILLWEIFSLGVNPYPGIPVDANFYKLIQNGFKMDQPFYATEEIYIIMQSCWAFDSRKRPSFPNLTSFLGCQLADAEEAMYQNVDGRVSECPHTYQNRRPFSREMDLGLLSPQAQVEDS
Format: cell-based, mouse
Experimental: Activity of compounds on FLT3 activating mutations were assessed using Ba/F3 cell lines (mouse pro-B cell line) stably expressing human FLT3-ITD, FLT3-ITD-D835Y or FLT3-ITD-F691L. […] The supernatant collected were concentrated with PEG8000 and used to infect Ba/F3 cells at 1-5 MOI in serum-free media with polybrene. Infected Ba/F3 cells were selected in presence of puromycin, and surviving cells verified by sequencing and/or protein detection assay. Constitutive expression of the activating kinase transforms the Ba/F3 cells into IL-3-independent growth allowing them to be cultured in the absence of IL-3. […] For use in compound testing, cells in exponential growth phase were harvested, counted, and resuspended at the required cell density. Cell viability assays were performed in 96-well assay plates and 90 μL of cell suspension seeded per well. Serial dilutions of the test compounds and assay controls and were freshly prepared for the assay. Nine-point 3× serial dilutions were prepared in 100% DMSO (400× stock) and subsequently diluted in cell culture media to obtain 10× stocks. Ten microliters of the 10× stock serial dilutions were added to the appropriate wells (triplicate wells per condition) in the assay plate. […] Assay plates were incubated for 3 days in at 37° C. in a humidified incubator with 5% CO2.
Inhibition rate (IR) of the tested compounds was determined by the following formula: IR (%)=(1−(RLU compound−RLU blank)/(RLU control−RLU blank))*100%. The inhibitions of different dose of compound were calculated in Excel file, and the dose responses were analysed using GraphPad Prism to evaluate related parameters, such as Bottom, Top and IC50. For the IC50 analysis by GraphPad Prism, the equation below was used to fit curve: Y=Bottom+(Top−Bottom)/(1+10^((LogIC50−X)*HillSlope))

**Q.** Which GI50 does the source give for CCc1nc(Nc2cccc([C@@H](C)CNC(=O)CN(C)C(=O)/C=C/CN3CCC3)c2)c(C(N)=O)nc1CC [Compound 508, (R, E)-3-((3-(1-(2-(4-(azetidin-1-yl)-N-methylbut-2-enamido)acetamido)propan-2-yl)phenyl)amino)-5,6-diethylpyrazine-2-carboxamide] here?
**A.** The GI50 was 1 to 10 nM.

**Q.** How did the GI50 turn out when CCc1nc(C(N)=O)c(Nc2cccc([C@@H](C)CNC(=O)CN(C)C(=O)/C=C/CN3CCC3)c2)nc1N(C)CC [Compound 518, (R,E)-3-((3-(1-(2-(4-(azetidin-1-yl)-N-methylbut-2-enamido)acetamido)propan-2-yl)phenyl)amino)-6-ethyl-5-(ethyl(methyl)amino)pyrazine-2-carboxamide] was run?
**A.** The GI50 was 1 to 10 nM.

**Q.** Which GI50 does the source give for CCc1nc(C(N)=O)c(Nc2ccnc(CCNC(=O)[C@H](C)N(C)C(=O)/C=C/CN(C)C)c2)nc1N(C)C(C)C [Compound 605, (S, E)-3-((2-(2-(2-(4-(dimethylamino)-N-methylbut-2-enamido)propanamido)ethyl)pyridin-4-yl)amino)-6-ethyl-5-(isopropyl (methyl)amino) pyrazine-2-carboxamide] here?
**A.** Its GI50 is 10 to 100 nM.

**Q.** For CCc1nc(C(N)=O)c(Nc2ccnc(CCNC(=O)[C@H](C)N(C)C(=O)/C=C/CN(C)C)c2)nc1C1CC1 [Compound 310, (S,E)-5-cyclopropyl-3-((2-(2-(2-(4-(dimethylamino)-N-methylbut-2-enamido)propanamido)ethyl)pyridin-4-yl)amino)-6-ethylpyrazine-2-carboxamide], which GI50 is on record?
**A.** Its GI50 is 10 to 100 nM.

**Q.** How did the GI50 turn out when CCc1nc(C(N)=O)c(Nc2cccc(CCNC(=O)[C@H](C)N(C)C(=O)/C=C/CN(C)C)c2)nc1NC(C)C [Compound 205, (S,E)-3-((3-(2-(2-(4-(dimethylamino)-N-methylbut-2-enamido)propanamido)ethyl)phenyl)amino)-6-ethyl-5-(isopropylamino)pyrazine-2-carboxamide] was run?
**A.** Its GI50 is 1 to 10 nM.

**Q.** For CCCc1nc(Nc2cccc([C@@H](C)CNC(=O)CN(C)C(=O)/C=C/CN3CCC3)c2)c(C(N)=O)nc1CC [Compound 507, (R,E)-3-((3-(1-(2-(4-(azetidin-1-yl)-N-methylbut-2-enamido)acetamido)propan-2-yl)phenyl)amino)-6-ethyl-5-propylpyrazine-2-carboxamide], which GI50 is on record?
**A.** Its GI50 is 1 to 10 nM.

**Q.** How did the GI50 turn out when CCc1nc(C(N)=O)c(Nc2cccc(CCNC(=O)[C@H](C)N(C)C(=O)/C=C/CN(C)C)c2)nc1N(C)C(C)C [Compound 204, (S,E)-3-((3-(2-(2-(4-(dimethylamino)-N-methylbut-2-enamido)propanamido)ethyl)phenyl)amino)-6-ethyl-5-(isopropyl(methyl)amino)pyrazine-2-carboxamide] was run?
**A.** The GI50 was 1 to 10 nM.

**Q.** How did the GI50 turn out when CCOc1nc(Nc2cccc(CCNC(=O)CN(C)C(=O)/C=C/CN3CCC3)c2)c(C(N)=O)nc1CC [Compound 602, (E)-3-((3-(2-(2-(4-(azetidin-1-yl)-N-methylbut-2-enamido)acetamido)ethyl)phenyl)amino)-5-ethoxy-6-ethylpyrazine-2-carboxamide] was run?
**A.** The GI50 was 1 to 10 nM.

**Q.** How did the GI50 turn out when CCc1nc(C(N)=O)c(Nc2cc(F)cc(CCNC(=O)CN(C)C(=O)/C=C/CN3CCC3)c2)nc1C1CC1 [Compound 516, (E)-3-((3-(2-(2-(4-(azetidin-1-yl)-N-methylbut-2-enamido)acetamido)ethyl)-5-fluorophenyl)amino)-5-cyclopropyl-6-ethylpyrazine-2-carboxamide] was run?
**A.** The GI50 was 10 to 100 nM.

**Q.** Which GI50 does the source give for CCc1nc(C(N)=O)c(Nc2cccc(CCNC(=O)CN(C)C(=O)/C=C/CN(C)C)c2)nc1N(C)CC [Compound 252, (E)-3-((3-(2-(2-(4-(dimethylamino)-N-methylbut-2-enamido)acetamido)ethyl)phenyl)amino)-6-ethyl-5-(ethyl (methyl)amino) pyrazine-2-carboxamide] here?
**A.** The GI50 was 1 to 10 nM.

**Q.** Which GI50 does the source give for CCc1nc(C(N)=O)c(Nc2cccc(CCNC(=O)[C@H](C)N(C)C(=O)/C=C/CNC)c2)nc1N(C)C(C)C [Compound 307, (S,E)-6-ethyl-5-(isopropyl(methyl)amino)-3-((3-(2-(2-(N-methyl-4-(methylamino)but-2-enamido)propanamido)ethyl)phenyl)amino)pyrazine-2-carboxamide] here?
**A.** Its GI50 is 10 to 100 nM.

**Q.** CCc1nc(C(N)=O)c(Nc2cccc(CCNC(=O)CN(C)C(=O)/C=C/CN3CCC3)c2)nc1N(C)CC [Compound 516A, (E)-3-((3-(2-(2-(4-(azetidin-1-yl)-N-methylbut-2-enamido)acetamido)ethyl)phenyl)amino)-6-ethyl-5-(ethyl(methyl)amino) pyrazine-2-carboxamide] was tested. Which GI50 did it give?
**A.** Its GI50 is 1 to 10 nM.

**Q.** For CCc1nc(C(N)=O)c(Nc2cccc([C@@H](C)CNC(=O)CN(C)C(=O)/C=C/CN3CCC3)c2)nc1C1CC1 [Compound 506, (R,E)-3-((3-(1-(2-(4-(azetidin-1-yl)-N-methylbut-2-enamido)acetamido)propan-2-yl)phenyl)amino)-5-cyclopropyl-6-ethylpyrazine-2-carboxamide], which GI50 is on record?
**A.** Its GI50 is 1 to 10 nM.

**Q.** For Cc1nc(C(N)=O)c(Nc2cccc(CCNC(=O)CN(C)C(=O)/C=C/CN(C)C)c2)nc1N(C)C(C)C [Compound 250, (E)-3-((3-(2-(2-(4-(dimethylamino)-N-methylbut-2-enamido)acetamido)ethyl)phenyl)amino)-5-(isopropyl(methyl)amino)-6-methylpyrazine-2-carboxamide], which GI50 is on record?
**A.** Its GI50 is 1 to 10 nM.

**Q.** For CCc1nc(C(N)=O)c(Nc2cccc(CCNC(=O)CN(C)C(=O)/C=C/CN3CCC3)c2)nc1OC(C)C [Compound 603, (E)-3-((3-(2-(2-(4-(azetidin-1-yl)-N-methylbut-2-enamido)acetamido)ethyl)phenyl)amino)-6-ethyl-5-isopropoxypyrazine-2-carboxamide], which GI50 is on record?
**A.** Its GI50 is 10 to 100 nM.

**Q.** Which GI50 does the source give for CCc1nc(C(N)=O)c(Nc2ccc(N3CCC(N4CCN(C)CC4)CC3)c(OC)c2)nc1NC1CCOCC1 [Gilteritinib, gilteritinib, reference compound] here?
**A.** The GI50 was 10 to 100 nM.

**Q.** How did the GI50 turn out when Cc1nc(C(N)=O)c(Nc2cccc(CCNC(=O)[C@H](C)N(C)C(=O)/C=C/CN(C)C)c2)nc1N(C)C(C)C [Compound 232, (S, E)-3-((3-(2-(2-(4-(dimethylamino)-N-methylbut-2-enamido)propanamido)ethyl)phenyl)amino)-5-(isopropyl (methyl)amino)-6-methylpyrazine-2-carboxamide] was run?
**A.** The GI50 was 1 to 10 nM.

**Q.** With CCc1nc(C(N)=O)c(Nc2cccc(CCNC(=O)CN(C)C(=O)/C=C/CN(C)C)c2)nc1C1CC1 [Compound 219, (E)-5-cyclopropyl-3-((3-(2-(2-(4-(dimethylamino)-N-methylbut-2-enamido)acetamido)ethyl)phenyl)amino)-6-ethylpyrazine-2-carboxamide] as the compound, how does the GI50 read?
**A.** Its GI50 is 1 to 10 nM.

**Q.** For CCc1nc(C(N)=O)c(Nc2cccc([C@@H](C)CNC(=O)CN(C)C(=O)/C=C/CN(C)C)c2)nc1C1CC1 [Compound 504, (R,E)-5-cyclopropyl-3-((3-(1-(2-(4-(dimethylamino)-N-methylbut-2-enamido)acetamido)propan-2-yl)phenyl)amino)-6-ethylpyrazine-2-carboxamide], which GI50 is on record?
**A.** The GI50 was 1 to 10 nM.
